The series in a line: In vivo sublimation (disappearance) of pellets from subcutaneous implant sites. Set-up: species or system Sprague-Dawley male rats. The conditions noted are these: subcutaneous implant in neck scruff of rats, explanted pellet mass (FIG. 11). The method, then:
The in-vivo disappearance rates of hexamethylethane and adamantane pellets from subcutaneous implant sites in rats were assessed over a 16-week period. Forty six Sprague-Dawley male rats of similar age and weight were assigned into five treatment groups: hexamethylethane pellet implantation (Group H), adamantane pellet implantation (Group A), PLGA (Boehringer Ingelheim Resomer RG 504H) pellet implantation (Group P), a sham group for which surgery was performed without pellet implantation, and a control (no surgery) group. Pellets were individually weighed, and implanted into the neck scruff of rats. Explantation and reweighing of adamantane pellets was performed at 4 and 8 days, and 2, 4, 8, and 10 weeks; hexamethylethane pellets were explanted and weighed at 4 and 24 hours, and 4, 8, and 14 days.

As to `C1C2CC3CC1CC(C2)C3` [adamantane], the “in-vivo sublimation / disappearance period of pellets” value is given as “over a period of at least two months”. As for `CC(C)(C)C(C)(C)C` [hexamethylethane, 2,2,3,3-Tetramethylbutane], the “in-vivo sublimation / disappearance period of pellets” value is reported as “over a period as short as one week”.
